Test results reported in ChEMBL document CHEMBL1127588, “A structure-activity relationship study of benzylic modifications of 4-[1-(1-naphthyl)ethyl]-1H-imidazoles on alpha 1- and alpha 2-adrenergic receptors” (J Med Chem, 1994).

Assays:
[1] = Ratio between IC50 values of alpha 1 and alpha 2 receptors
[2] = target: T1, Adrenergic receptor alpha-2 (Rattus norvegicus, UniProt P22086+P19328+P22909); test: Tested for its binding affinity against alpha-2 receptor in rat brain membrane; type: cell membranes
T1 sequence (P22086 whole entry): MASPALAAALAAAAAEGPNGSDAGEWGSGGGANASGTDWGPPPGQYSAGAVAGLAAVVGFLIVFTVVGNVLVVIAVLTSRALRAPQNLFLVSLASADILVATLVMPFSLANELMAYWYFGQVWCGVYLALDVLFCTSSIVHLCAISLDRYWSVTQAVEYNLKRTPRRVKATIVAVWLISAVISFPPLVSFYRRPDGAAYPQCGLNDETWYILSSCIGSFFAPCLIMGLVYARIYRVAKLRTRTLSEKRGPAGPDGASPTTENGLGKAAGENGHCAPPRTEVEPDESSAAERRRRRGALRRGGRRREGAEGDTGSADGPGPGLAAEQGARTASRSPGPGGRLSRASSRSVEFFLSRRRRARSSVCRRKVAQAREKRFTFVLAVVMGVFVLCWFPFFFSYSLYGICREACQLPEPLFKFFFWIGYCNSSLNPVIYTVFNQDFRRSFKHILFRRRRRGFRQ
T1 sequence (P19328 whole entry): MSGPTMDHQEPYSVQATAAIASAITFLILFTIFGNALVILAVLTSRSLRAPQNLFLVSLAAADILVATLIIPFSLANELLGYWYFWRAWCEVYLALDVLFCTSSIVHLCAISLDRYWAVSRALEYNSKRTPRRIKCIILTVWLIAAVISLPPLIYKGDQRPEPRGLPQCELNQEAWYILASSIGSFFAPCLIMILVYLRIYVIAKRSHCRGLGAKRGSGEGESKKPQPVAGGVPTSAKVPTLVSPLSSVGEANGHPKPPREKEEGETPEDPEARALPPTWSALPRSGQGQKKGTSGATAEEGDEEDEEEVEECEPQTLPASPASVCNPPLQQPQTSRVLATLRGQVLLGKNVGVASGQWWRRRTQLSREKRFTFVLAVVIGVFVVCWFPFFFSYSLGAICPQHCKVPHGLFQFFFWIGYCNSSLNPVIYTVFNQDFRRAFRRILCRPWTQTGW
T1 sequence (P22909 whole entry): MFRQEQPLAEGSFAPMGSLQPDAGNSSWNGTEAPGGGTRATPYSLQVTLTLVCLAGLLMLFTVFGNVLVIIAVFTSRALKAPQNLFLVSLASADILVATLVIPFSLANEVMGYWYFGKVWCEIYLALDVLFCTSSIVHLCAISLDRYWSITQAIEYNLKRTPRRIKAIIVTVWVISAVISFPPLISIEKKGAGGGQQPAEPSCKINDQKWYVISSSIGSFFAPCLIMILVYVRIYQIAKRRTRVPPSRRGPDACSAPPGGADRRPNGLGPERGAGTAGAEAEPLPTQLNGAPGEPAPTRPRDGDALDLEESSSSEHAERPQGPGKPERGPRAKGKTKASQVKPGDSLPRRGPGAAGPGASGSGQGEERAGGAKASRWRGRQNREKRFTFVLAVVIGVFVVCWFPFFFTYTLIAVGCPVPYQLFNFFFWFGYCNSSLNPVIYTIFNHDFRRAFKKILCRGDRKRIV

[3] = target: T2, Adrenergic receptor alpha-1 (Rattus norvegicus, UniProt P15823+P23944+P43140); test: Tested for its binding affinity against alpha-1 receptor in rat brain membrane; type: cell membranes
T2 sequence (P15823 whole entry): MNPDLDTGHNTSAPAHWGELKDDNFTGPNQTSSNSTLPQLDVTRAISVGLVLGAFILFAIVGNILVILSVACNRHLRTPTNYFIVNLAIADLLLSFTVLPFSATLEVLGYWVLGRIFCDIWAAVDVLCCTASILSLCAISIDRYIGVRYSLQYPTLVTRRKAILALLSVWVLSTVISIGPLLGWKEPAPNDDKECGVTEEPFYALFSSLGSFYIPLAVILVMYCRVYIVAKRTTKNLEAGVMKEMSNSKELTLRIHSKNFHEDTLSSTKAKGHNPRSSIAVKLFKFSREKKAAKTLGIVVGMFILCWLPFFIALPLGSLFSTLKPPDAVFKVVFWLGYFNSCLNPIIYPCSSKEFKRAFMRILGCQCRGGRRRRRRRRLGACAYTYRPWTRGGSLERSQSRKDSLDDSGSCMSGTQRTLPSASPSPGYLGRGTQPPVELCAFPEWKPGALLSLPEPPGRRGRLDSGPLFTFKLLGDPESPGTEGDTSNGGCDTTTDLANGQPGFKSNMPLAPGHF
T2 sequence (P23944 whole entry): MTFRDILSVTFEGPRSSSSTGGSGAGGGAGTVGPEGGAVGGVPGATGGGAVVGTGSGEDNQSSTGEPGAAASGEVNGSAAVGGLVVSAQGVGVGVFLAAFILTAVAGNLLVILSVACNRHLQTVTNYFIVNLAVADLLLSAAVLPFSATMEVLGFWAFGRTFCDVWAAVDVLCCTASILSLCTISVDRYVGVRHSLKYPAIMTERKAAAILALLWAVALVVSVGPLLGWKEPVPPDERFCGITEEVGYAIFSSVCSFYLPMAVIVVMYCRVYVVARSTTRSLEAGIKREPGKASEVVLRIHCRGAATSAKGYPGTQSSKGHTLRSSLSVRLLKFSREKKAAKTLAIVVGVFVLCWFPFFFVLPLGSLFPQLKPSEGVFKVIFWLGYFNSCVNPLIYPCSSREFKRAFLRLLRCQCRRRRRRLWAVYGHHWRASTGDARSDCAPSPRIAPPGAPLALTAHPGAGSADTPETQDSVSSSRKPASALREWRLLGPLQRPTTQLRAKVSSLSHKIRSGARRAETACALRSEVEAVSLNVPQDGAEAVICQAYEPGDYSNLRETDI
T2 sequence (P43140 whole entry): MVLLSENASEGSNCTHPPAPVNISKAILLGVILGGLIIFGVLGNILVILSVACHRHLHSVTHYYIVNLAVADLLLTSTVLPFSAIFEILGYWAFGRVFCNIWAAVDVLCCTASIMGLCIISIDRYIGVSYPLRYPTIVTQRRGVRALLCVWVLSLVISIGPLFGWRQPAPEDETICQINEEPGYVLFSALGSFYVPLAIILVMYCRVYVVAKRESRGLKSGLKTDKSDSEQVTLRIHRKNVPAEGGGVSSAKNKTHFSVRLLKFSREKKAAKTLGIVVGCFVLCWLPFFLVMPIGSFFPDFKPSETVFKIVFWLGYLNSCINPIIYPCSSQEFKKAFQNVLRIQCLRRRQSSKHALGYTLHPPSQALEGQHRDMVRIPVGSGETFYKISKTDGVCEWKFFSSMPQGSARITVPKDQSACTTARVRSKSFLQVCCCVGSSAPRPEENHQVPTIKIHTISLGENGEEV

[4] = target: Adrenergic receptor alpha (Rattus norvegicus) (UniProt P15823+P23944+P43140+P22086+P19328+P22909); test: Ratio between EC50 values of alpha 1 and alpha 2 receptors; type: protein assay

SMILES | Ratio [1] | Ki [2] [µM] | Ki [3] [µM] | Ratio [4]
O=C(O)C(=O)O.O=C(c1c[nH]cn1)c1cccc2ccccc12 | 0.5 | 31.754 | 15.902 | 
CC(c1c[nH]cn1)c1cccc2ccccc12 (stereo in doubt; S-(-)-2) | 22.3 |  |  | 
Cl.OC(c1c[nH]cn1)(c1cccc2ccccc12)C(F)(F)F (stereo unspecified) | > 2 | > 24.539 | > 50 | 
CC(c1c[nH]cn1)c1cccc2ccccc12 (stereo in doubt; 2) | 18.2 |  |  | 643
CC(c1c[nH]cn1)c1cccc2ccccc12 (stereo in doubt; S-(+)-2) | 41.9 |  |  | 752
